The test system of series [1] is BE2-C neuroblastoma. Set-up: method as in PMID 36142383, PMID 37173934, PMID 36296713. Conditions: cited from earlier work.
The test system of series [2] is HT29 colon cells. Set-up: method as in PMID 36142383, PMID 37173934, PMID 36296713. The settings on record: cited from earlier work.
Series [3] deals with A431 skin. Set-up: method as in PMID 36142383, PMID 37173934, PMID 36296713. The settings on record: cited from earlier work.
The subject of series [4] is H460 lung. More on the design: method as in PMID 36142383, PMID 37173934, PMID 36296713. Conditions: cited from earlier work.
In series [5] the test system is histone deacetylase (HDAC). The series is described as follows: Fluorometric HDAC activity assay on extracts of treated HT29 cells. Type of series: cell-based, human. Conditions: HT29 colon cells treated 72 h at GI50 concentration; lower RFU = decline in HDAC activity; HT29 extract control 5154 ± 40. The procedure:
All values are expressed as RFU.
To study the HDAC activity in HT29 treated cells, a Fluorometric HDAC Activity Assay Kit ab156064 (Abcam, Cambridge, MA, USA) was used and all sample preparations were made based on the manufacturer’s protocol. A total of 10^6 cells/mL of HT29 cells were seeded in DMEM with serum deprivation for 18 h to synchronise the cells. […] Cells were then washed with cold PBS and resuspended in lysis buffer (10 mM Tris HCl (pH 7.5), 10 mM NaCl, 15 mM MgCl2, 250 mM sucrose, 0.5% NP-40 and 0.1 mM EGTA) and lysed on ice for 20 min. Cells were centrifuged through 4 mL of sucrose cushion (30% sucrose, 10mM Tris HCl (pH 7.5), 10 mM NaCl and 3mM MgCl2) at 1300× g for 10 min at 4 °C. Supernatant was discarded and the pellet was washed and resuspended in extraction buffer (50 mM HEPES-KOH (pH 7.5), 420 mM NaCl, 0.5 mM EDTA 2Na, 0.1 mM EGTA and 10% glycerol) and then sonicated for 30 s. Nuclei were lysed for 30 min on ice and centrifuged at 20,000× g for 30 min. The supernatant was collected, and the samples were prepared for the fluorometric assay according to the manufacturer’s protocol (Histone Deacetylase (HDAC) Activity Assay Fluorometric Kit ab156064, Abcam). The changes in the relative fluorescence intensity (expressed as RFU) were recorded each minute over 60 min using the Glo-Max®-Multimode microplate reader (Promega Corporation, Alexandra, VIC, Australia) at an excitation/emission of 355/460 nm.

The subject of series [6] is MCF-7 breast. More on the design: method as in PMID 36142383, PMID 37173934, PMID 36296713. The settings on record: cited from earlier work.
Series [7] relates to MIA pancreas. More on the design: method as in PMID 36142383, PMID 37173934, PMID 36296713. The settings on record: cited from earlier work.
Series [8] has as its system multiple human cell lines. More on the design: method as in PMID 36142383, PMID 37173934, PMID 36296713. Conditions: average over all cell lines; cited from earlier work.
The test system of series [9] is HT29 colon cells. Nature of the series: TMRE mitochondrial membrane potential (MtMP) assay. The class given is cell-based, human. Conditions: GI50 drug concentration (FCCP 20 μM). How it is done: This was achieved by determining if the overproduction of ROS induced by these complexes impacts mitochondrial activity by altering MtMP. Briefly, there is evidence showing a strong correlation between increased levels of ROS and mitochondrial impairment. […] The MtMP changes recorded are measured as RFU. […] To investigate the MtMP changes in HT29 treated cells, a TMRE-MtMP Assay Kit (Abcam, Cambridge, MA, USA) was used, as previously described. In 96-well plates, 25,000 cells/mL of HT29 colon cells in DMEM were seeded. Cells were treated with a GI50 drug concentration for each complex. At 24, 48 or 72 h, cells were washed with PBS and stained with tetramethylrhodamine, ethyl ester (TMRE) (1 μM) and incubated for 30 min. TMRE was then removed, and cells were then re-washed with PBS (0.2% BSA), after which phenol red free media was added. The plates were directly scanned to measure fluorescence (expressed as RFU), using the Glo-Max®-Multimode microplate reader (Promega Corporation, Alexandra, VIC, Australia) at an excitation/emission of 549/575 nm. For the positive control, 20 μM carbonyl cyanide 4-(trifluoromethoxy) phenylhydrazone (FCCP)) was added to the cells and incubated for 10 min. The cells were washed with PBS (0.2% BSA) and stained with TMRE (1 μM) for 30 min; this was removed, and phenol red free media was added, and the final solution was scanned as mentioned above.

The subject of series [10] is A2780 ovarian. Set-up: method as in PMID 36142383, PMID 37173934, PMID 36296713. Conditions: cited from earlier work.
Series [11] concerns non-tumour-derived MCF10A breast line. More on the design: method as in PMID 36142383, PMID 37173934, PMID 36296713. Conditions: cited from earlier work.
Series [12] relates to SJ-G2 glioblastoma. Set-up: method as in PMID 36142383, PMID 37173934, PMID 36296713. Conditions: cited from earlier work.
Series [13] relates to U87 glioblastoma. More on the design: method as in PMID 36142383, PMID 37173934, PMID 36296713. Conditions: cited from earlier work.
Series [14] relates to HT29 colon. More on the design: method as in PMID 36142383, PMID 37173934, PMID 36296713. Conditions: cited from earlier work.
For series [15], the system named is cisplatin-resistant ADDP ovarian variant. More on the design: method as in PMID 36142383, PMID 37173934, PMID 36296713. Conditions: cited from earlier work.
For series [16], the system named is Du145 prostate. Set-up: method as in PMID 36142383, PMID 37173934, PMID 36296713. The settings on record: cited from earlier work.
In series [17] the test system is peritoneal carcinoma. More on the design: method as in PMID 20535526. Conditions: BD-IX rats with peritoneal carcinoma; cited from earlier work.
For series [18], the system named is prostate tumour. More on the design: method as in PMID 18997969. Conditions: mice with prostate tumour; cited from earlier work.

We go through four compounds from article PMC10888562 (International Journal of Molecular Sciences, 2024).

SMILES strings stand for the structures. Where “and” joins values, the source holds several entries; their conditions need not be identical. Equal values may be shown once. Read-outs that look alike come from different tables or passages of the source.

Broadly, the GI50 is the concentration at which growth is held to half of that of the control.

With `Cc1c(C)c2cccnc2c2ncccc12.N[C@H]1CCCC[C@@H]1N.[OH][Pt+2][OH]` [56MESS(IV)(OH)2], the GI50 in series [1] was 240 ± 22 nM; in [3], 120 ± 22 nM; in series [4], 190 ± 150 nM; in [6], 480 ± 140 nM; in series [7] it was 43 ± 2.5 nM; in [8], 151 ± 50 nM. For the same compound, the GI50 in series [10] is 59 ± 7 nM; in series [11], 61 ± 7 nM; in series [12], 210 ± 45 nM; in series [13], 190 ± 23 nM; in series [14], 36 ± 7 nM; in [15] it was 170 ± 120 nM. Further, in [16], the 50% growth inhibitory concentration (GI50) was 15 ± 2.6 nM. The “ROS Production” value in series [2] (24 h) is listed as 259 ± 3 RFU; in series [2] (48 h), 356 ± 11 RFU; in [2] (72 h), 438 ± 7 RFU. Further, the “HDAC Inhibition at 72 h” value in series [5] is reported as 3011 ± 23 RFU. For the same compound, the “MtMP Changes” value in [9] (24 h, control 542 ± 4) came to 291 ± 9 RFU; in series [9] (48 h, control 507 ± 11), 221 ± 5 RFU; in series [9] (72 h, control 449 ± 10), 188 ± 5 RFU.

As for `Cc1c(C)c2cccnc2c2ncccc12.N[C@H]1CCCC[C@@H]1N.[Pt]` [56MESS, [Pt^II(5,6-Me2phen)(SS-DACH)]^2+], the GI50 in series [1] was 59 ± 4 nM; in series [3], 29 ± 1 nM; in series [4] it was 21 ± 2 nM; in [6] it was 93 ± 44 nM; in series [7], 13 ± 2 nM; in series [8], 36 ± 10 nM. Also, the GI50 is 76 ± 57 nM in series [10]; 16 ± 1 nM in series [11]; 66 ± 22 nM in series [12]; 35 ± 6.4 nM in series [13]; 10 ± 1.6 nM in series [14]; 13 ± 2 nM in [15]. In series [16], the GI50 was 4.6 ± 0.4 nM. Further, the nephrotoxicity entry in [17] was “caused nephrotoxicity”. The tumour suppression result in series [17] is “ineffective in suppressing tumour”. Besides, the “ROS Production” value in series [2] (24 h) is listed as 240 ± 5 RFU; in series [2] (48 h) it was 218 ± 3 RFU; in series [2] (72 h), 255 ± 4 RFU. For the same compound, the “HDAC Inhibition at 72 h” value in series [5] was 1847 RFU and 1847 ± 42 RFU. Moreover, the “MtMP Changes” value in [9] (24 h, control 542 ± 4) is listed as 277 ± 5 RFU; in [9] (48 h, control 507 ± 11), 211 ± 7 RFU; in [9] (72 h, control 449 ± 10), 151 ± 7 RFU.

On to `N[C@H]1CCCC[C@@H]1N.[OH][Pt+2][OH].c1cnc2c(c1)ccc1cccnc12` [PHENSS(IV)(OH)2], for which the GI50 in [1] was 3000 ± 530 nM; in series [3], 4300 ± 530 nM; in [4], 1700 ± 200 nM; in [6], 16000 nM; in series [7] it was 3400 ± 2200 nM; in series [8] it was 3320 ± 880 nM. Besides, the GI50 is 800 ± 84 nM in series [10]; 1700 ± 200 nM in [11]; 1700 ± 350 nM in series [12]; 4900 ± 610 nM in series [13]; 710 ± 300 nM in [14]; 1300 ± 350 nM in [15]. Moreover, in series [16], the GI50 is 310 ± 92 nM. For the same compound, the figures for the “ROS Production” value in [2] (24 h), in series [2] (48 h) and in series [2] (72 h) were 144 ± 5 RFU, 273 ± 4 RFU and 303 ± 1 RFU, respectively. Moreover, the “HDAC Inhibition at 72 h” value in series [5] is 4107 ± 19 RFU. In addition, the “MtMP Changes” value in series [9] (24 h, control 542 ± 4) is 328 ± 7 RFU; in [9] (48 h, control 507 ± 11), 314 ± 6 RFU; in series [9] (72 h, control 449 ± 10), 234 ± 11 RFU.

On to `N[C@H]1CCCC[C@@H]1N.[Pt+2].c1cnc2c(c1)ccc1cccnc12` [PHENSS, [Pt^II(phen)(SS-DACH)]^2+], for which the GI50 in [1] is 380 ± 46 nM; in series [3] it was 480 ± 170 nM; in [4], 360 ± 35 nM; in [6], 1500 ± 500 nM; in [7] it was 200 ± 57 nM; in [8], 434 ± 110 nM. The GI50 in series [10] was 230 ± 30 nM; in [11] it was 300 ± 58 nM; in series [12], 330 ± 66 nM; in series [13], 980 ± 270 nM; in [14] it was 160 ± 45 nM; in series [15], 190 ± 47 nM. The GI50 in [16] is 100 ± 38 nM. The results for the “ROS Production” value in series [2] (24 h), in series [2] (48 h) and in [2] (72 h) were 174 ± 2 RFU, 172 ± 9 RFU and 176 ± 7 RFU, respectively. The “HDAC Inhibition at 72 h” value in series [5] stood at 3733 ± 37 RFU. The “MtMP Changes” value in series [9] (24 h, control 542 ± 4) was 321 ± 7 RFU; in series [9] (48 h, control 507 ± 11), 305 ± 5 RFU; in [9] (72 h, control 449 ± 10), 257 ± 6 RFU. Also, in series [18], the “rate of tumour regression” value is on record as “comparable to cisplatin”. For the same compound, the toxicity result in [18] is on record as “no toxicity was detected”.
